Assay results as given in patent US7582611B2, “Motilide compounds” (Pfizer Inc., priority 2005, dated 2009).
Values after ≈ are worked out from the molar mass of the structure shown.

Experiments:
[1] = system: Streptococcus pneumoniae ATCC 6301; test: Evaluation of antibacterial activity (MIC, serial dilutions on 96-well microtiter plates); type: cell-based; conditions: ATCC6301, read-out: Antibacterial Activity (MIC, μg/mL)
[2] = molecular target: T1, Motilin Receptor (Oryctolagus cuniculus, UniProt G1T803); test: Tissue based assay for motilin agonist potency (rabbit duodenum contractility); type: cell-based; conditions: rabbit duodenum strips, contraction normalized to 1 μM carbachol; read-out: Motilin Receptor Agonist Activity (EC50)
T1 construct: strips of longitudinal smooth muscle were sliced from the segments; from tissue; host or cells: rabbit duodenum longitudinal smooth muscle strips
Method: The motilin agonist potencies of compounds of this invention were evaluated using a tissue based assay, using rabbit duodenum tissue-based contractility assay, generally following the procedure of Depoortere et al., J. Gastrointestinal Motility, 1, 150-159 (1989), the disclosure of which is incorporated herein by reference. Briefly, this method measures the ability of a compound to induce contractions in rabbit duodenal tissue, a motilin receptor-bearing tissue contractilely responsive to motilin.
Strips of rabbit duodenum were tested and qualified for use in the assay by as follows. Segments of rabbit duodenum, 20-30 cm distal to the pylorus were split longitudinally. The mucosa was removed and 2×2×15 mm strips of longitudinal smooth muscle were sliced from the segments. The strips were bathed in oxygenated Krebs solution at 37° C., with 1.5 g of tension, and contractions measured auxotonically.
The carbachol was then washed away by changing the organ bath buffer twice. The strips were washed again 20±5 minutes following the carbachol contraction. Following this last wash a dose response study was initiated within 10±5 min. Each compound tested was dissolved in dimethylsulfoxide (DMSO) to a final concentration of 10 mM. A series of seven 10× serial dilutions in water was prepared, so that the concentration of the seventh serial dilution was 1.0×10^−6 mM. The first through fifth serial dilutions of the compound were applied, starting with 200 μL of the most dilute solution. After each application, there was a wait of 2±0.5 min, until the response was stable, before the application of the next dose (the next higher concentration serial dilution). The dose was increased in 10-fold increments until a small response was observed. Subsequent doses were the increased in 2- to 5-fold increments, until the maximum response was obtained. At 2±0.5 min after the last drug addition, the strips were dosed with 1 μM carbachol.
The EC50 (concentration producing a half-maximal effect) was calculated as follows. The basal tension was subtracted from the compound-induced tension for each reading. The data points were normalized against the response obtained from 1 μM carbachol at the end of the experiment. The concentration of compound was plotted against the response and fitted to the following equation: R=(Rmax·C)/(EC50+C) where R is the contraction response, Rmax is the maximal contraction response, and C is the concentration of compound. Both R and Rmax are expressed as a fraction of the 1 μM carbachol contraction and range from 0 to 1.

T1 sequence (G1T803 1-400): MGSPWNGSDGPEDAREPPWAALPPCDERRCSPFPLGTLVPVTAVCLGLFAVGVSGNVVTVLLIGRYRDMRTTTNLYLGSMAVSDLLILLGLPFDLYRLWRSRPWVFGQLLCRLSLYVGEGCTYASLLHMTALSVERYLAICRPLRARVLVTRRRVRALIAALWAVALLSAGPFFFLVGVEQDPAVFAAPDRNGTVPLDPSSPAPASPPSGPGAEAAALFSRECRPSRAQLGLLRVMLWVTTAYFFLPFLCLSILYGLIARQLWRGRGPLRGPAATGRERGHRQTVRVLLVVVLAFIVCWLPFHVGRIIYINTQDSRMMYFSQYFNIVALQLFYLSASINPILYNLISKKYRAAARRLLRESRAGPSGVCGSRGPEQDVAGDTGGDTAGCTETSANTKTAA

SMILES | MIC [1] | EC50 [2]
CC[C@H]1OC(=O)[C@H](C)[C@@H](O[C@H]2C[C@@](C)(OC)[C@@H](O)[C@H](C)O2)[C@H](C)[C@@H](O[C@@H]2O[C@H](C)C[C@H](N(C)C(C)C)[C@H]2O)[C@](C)(O)C[C@@H](C)[C@H](OC(=O)N(C)C)[C@H](C)[C@@H](O)[C@]1(C)O [Compound A-18] | 128 µg/mL (≈ 153 µM) | 310 nM
CC[C@H]1OC(=O)[C@H](C)[C@@H](O[C@H]2C[C@@](C)(OC)[C@@H](O)[C@H](C)O2)[C@H](C)[C@@H](O[C@@H]2O[C@H](C)C[C@H](N(C)C(C)C)[C@H]2O)[C@](C)(O)C[C@@H](C)[C@H](OS(=O)(=O)N(C)C)[C@H](C)[C@@H](O)[C@]1(C)O [Compound A-19] | 128 µg/mL (≈ 147 µM) | 91 nM
CC[C@H]1OC(=O)[C@H](C)[C@@H](O[C@H]2C[C@@](C)(OC)[C@@H](O)[C@H](C)O2)[C@H](C)[C@@H](O[C@@H]2O[C@H](C)C[C@H](N(C)C3CCC3)[C@H]2O)[C@](C)(O)C[C@@H](C)[C@H](OCC(=O)OC)[C@H](C)[C@@H](O)[C@]1(C)O [Compound A-23] | > 128 µg/mL | 560 nM
CC[C@H]1OC(=O)[C@H](C)[C@@H](O[C@H]2C[C@@](C)(OC)[C@@H](O)[C@H](C)O2)[C@H](C)[C@@H](O[C@@H]2O[C@H](C)C[C@H](N(C)C3CCC3)[C@H]2O)[C@](C)(O)C[C@@H](C)[C@H](OC(C)=O)[C@H](C)[C@@H](O)[C@]1(C)O [Compound A-24] | > 128 µg/mL | 860 nM
CCC(=O)O[C@@H]1[C@H](C)[C@@H](O)[C@](C)(O)[C@@H](CC)OC(=O)[C@H](C)[C@@H](O[C@H]2C[C@@](C)(OC)[C@@H](O)[C@H](C)O2)[C@H](C)[C@@H](O[C@@H]2O[C@H](C)C[C@H](N(C)C3CCC3)[C@H]2O)[C@](C)(O)C[C@H]1C [Compound A-25] | > 128 µg/mL | 1200 nM
CC[C@H]1OC(=O)[C@H](C)[C@@H](O[C@H]2C[C@@](C)(OC)[C@@H](O)[C@H](C)O2)[C@H](C)[C@@H](O[C@@H]2O[C@H](C)C[C@H](N(C)C(C)C)[C@H]2O)[C@](C)(O)C[C@@H](C)[C@H](OCc2csc(C)n2)[C@H](C)[C@@H](O)[C@]1(C)O [Compound A-26] | 128 µg/mL (≈ 146 µM) | 480 nM
CC[C@H]1OC(=O)[C@H](C)[C@@H](O[C@H]2C[C@@](C)(OC)[C@@H](O)[C@H](C)O2)[C@H](C)[C@@H](O[C@@H]2O[C@H](C)C[C@H](N(C)C(C)C)[C@H]2O)[C@](C)(O)C[C@@H](C)[C@H](OCc2cc(C)on2)[C@H](C)[C@@H](O)[C@]1(C)O [Compound A-27] | 128 µg/mL (≈ 149 µM) | 110 nM
CC[C@H]1OC(=O)[C@H](C)[C@@H](O[C@H]2C[C@@](C)(OC)[C@@H](O)[C@H](C)O2)[C@H](C)[C@@H](O[C@@H]2O[C@H](C)C[C@H](N(C)C(C)C)[C@H]2O)[C@](C)(O)C[C@@H](C)[C@H](OCc2ccncc2)[C@H](C)[C@@H](O)[C@]1(C)O [Compound A-28] | 128 µg/mL (≈ 150 µM) | > 420 nM
CC[C@H]1OC(=O)[C@H](C)[C@@H](O[C@H]2C[C@@](C)(OC)[C@@H](O)[C@H](C)O2)[C@H](C)[C@@H](O[C@@H]2O[C@H](C)C[C@H](N(C)C(C)C)[C@H]2O)[C@](C)(O)C[C@@H](C)[C@H](OCc2nccs2)[C@H](C)[C@@H](O)[C@]1(C)O [Compound A-29] | 128 µg/mL (≈ 149 µM) | 290 nM
CC[C@H]1OC(=O)[C@H](C)[C@@H](O[C@H]2C[C@@](C)(OC)[C@@H](O)[C@H](C)O2)[C@H](C)[C@@H](O[C@@H]2O[C@H](C)C[C@H](N(C)C(C)C)[C@H]2O)[C@](C)(O)C[C@@H](C)[C@H](OCC(=O)NC2CCOCC2)[C@H](C)[C@@H](O)[C@]1(C)O [Compound A-33] | > 128 µg/mL | 120 nM

Now from value to compound:

MIC [1] | EC50 [2] | SMILES
64 µg/mL (≈ 79.3 µM) | 650 nM | CC[C@H]1OC(=O)[C@H](C)[C@@H](O[C@H]2C[C@@](C)(OC)[C@@H](O)[C@H](C)O2)[C@H](C)[C@@H](O[C@@H]2O[C@H](C)C[C@H](N(C)C(C)C)[C@H]2O)[C@](C)(O)C[C@@H](C)[C@H](OC(N)=O)[C@H](C)[C@@H](O)[C@]1(C)O [Compound A-17]
128 µg/mL (≈ 144 µM) | 490 nM | CC[C@H]1OC(=O)[C@H](C)[C@@H](O[C@H]2C[C@@](C)(OC)[C@@H](O)[C@H](C)O2)[C@H](C)[C@@H](O[C@@H]2O[C@H](C)C[C@H](N(C)C[C@H](C)O)[C@H]2O)[C@](C)(O)C[C@@H](C)[C@H](OS(=O)(=O)N(C)C)[C@H](C)[C@@H](O)[C@]1(C)O [Compound A-20]
64 µg/mL (≈ 76.6 µM) | 58 nM | CC[C@H]1OC(=O)[C@H](C)[C@@H](O[C@H]2C[C@@](C)(OC)[C@@H](O)[C@H](C)O2)[C@H](C)[C@@H](O[C@@H]2O[C@H](C)C[C@H](N(C)C(C)C)[C@H]2O)[C@](C)(O)C[C@@H](C)[C@H](OCC(=O)NC)[C@H](C)[C@@H](O)[C@]1(C)O [Compound A-21]
128 µg/mL (≈ 153 µM) | 140 nM | CC[C@H]1OC(=O)[C@H](C)[C@@H](O[C@H]2C[C@@](C)(OC)[C@@H](O)[C@H](C)O2)[C@H](C)[C@@H](O[C@@H]2O[C@H](C)C[C@H](N(C)C(C)C)[C@H]2O)[C@](C)(O)C[C@@H](C)[C@H](OCC(=O)OC)[C@H](C)[C@@H](O)[C@]1(C)O [Compound A-22]
> 128 µg/mL | 48 nM | CC[C@H]1OC(=O)[C@H](C)[C@@H](O[C@H]2C[C@@](C)(OC)[C@@H](O)[C@H](C)O2)[C@H](C)[C@@H](O[C@@H]2O[C@H](C)C[C@H](N(C)C(C)C)[C@H]2O)[C@](C)(O)C[C@@H](C)[C@H](OCCNC(C)=O)[C@H](C)[C@@H](O)[C@]1(C)O [Compound A-30]
> 128 µg/mL | 67 nM | CCNC(=O)CO[C@@H]1[C@H](C)[C@@H](O)[C@](C)(O)[C@@H](CC)OC(=O)[C@H](C)[C@@H](O[C@H]2C[C@@](C)(OC)[C@@H](O)[C@H](C)O2)[C@H](C)[C@@H](O[C@@H]2O[C@H](C)C[C@H](N(C)C(C)C)[C@H]2O)[C@](C)(O)C[C@H]1C [Compound A-31]
> 128 µg/mL | 240 nM | CC[C@H]1OC(=O)[C@H](C)[C@@H](O[C@H]2C[C@@](C)(OC)[C@@H](O)[C@H](C)O2)[C@H](C)[C@@H](O[C@@H]2O[C@H](C)C[C@H](N(C)C(C)C)[C@H]2O)[C@](C)(O)C[C@@H](C)[C@H](OCCNS(C)(=O)=O)[C@H](C)[C@@H](O)[C@]1(C)O [Compound A-32]
128 µg/mL (≈ 148 µM) | 120 nM | CC[C@H]1OC(=O)[C@H](C)[C@@H](O[C@H]2C[C@@](C)(OC)[C@@H](O)[C@H](C)O2)[C@H](C)[C@@H](O[C@@H]2O[C@H](C)C[C@H](N(C)C(C)C)[C@H]2O)[C@](C)(O)C[C@@H](C)[C@H](OCC(=O)NCCO)[C@H](C)[C@@H](O)[C@]1(C)O [Compound A-34]
64 µg/mL (≈ 76.1 µM) | 190 nM | CC[C@H]1OC(=O)[C@H](C)[C@@H](O[C@H]2C[C@@](C)(OC)[C@@H](O)[C@H](C)O2)[C@H](C)[C@@H](O[C@@H]2O[C@H](C)C[C@H](N(C)C(C)C)[C@H]2O)[C@](C)(O)C[C@@H](C)[C@H](NS(C)(=O)=O)[C@H](C)[C@@H](O)[C@]1(C)O [Compound A-35]
32 µg/mL (≈ 38 µM) | 66 nM | CC[C@H]1OC(=O)[C@H](C)[C@@H](O[C@H]2C[C@@](C)(OC)[C@@H](O)[C@H](C)O2)[C@H](C)[C@@H](O[C@@H]2O[C@H](C)C[C@H](N(C)CCO)[C@H]2O)[C@](C)(O)C[C@@H](C)[C@H](NS(C)(=O)=O)[C@H](C)[C@@H](O)[C@]1(C)O [Compound A-36]
64 µg/mL (≈ 73.5 µM) | 52 nM | CC[C@H]1OC(=O)[C@H](C)[C@@H](O[C@H]2C[C@@](C)(OC)[C@@H](O)[C@H](C)O2)[C@H](C)[C@@H](O[C@@H]2O[C@H](C)C[C@H](N(C)CC(C)(C)O)[C@H]2O)[C@](C)(O)C[C@@H](C)[C@H](NS(C)(=O)=O)[C@H](C)[C@@H](O)[C@]1(C)O [Compound A-37]
128 µg/mL (≈ 150 µM) | 140 nM | CC[C@H]1OC(=O)[C@H](C)[C@@H](O[C@H]2C[C@@](C)(OC)[C@@H](O)[C@H](C)O2)[C@H](C)[C@@H](O[C@@H]2O[C@H](C)C[C@H](N(C)CC(C)C)[C@H]2O)[C@](C)(O)C[C@@H](C)[C@H](NS(C)(=O)=O)[C@H](C)[C@@H](O)[C@]1(C)O [Compound A-38]
> 128 µg/mL | 280 nM | CC[C@H]1OC(=O)[C@H](C)[C@@H](O[C@H]2C[C@@](C)(OC)[C@@H](O)[C@H](C)O2)[C@H](C)[C@@H](O[C@@H]2O[C@H](C)C[C@H](N(C)C3CCC3)[C@H]2O)[C@](C)(O)C[C@@H](C)[C@H](NS(C)(=O)=O)[C@H](C)[C@@H](O)[C@]1(C)O [Compound A-39]
